Reference: DBAASP
In brackets after ≈: the same amount, converted by molar mass. One block for each molecule: values may come before it.

Legend:
Experiment in all cases: ≥ marks a high value that may be exact or a test limit, other limits are often not marked, values filed in µg/mL are converted to µM
[1] = test system: Aspergillus brasiliensis ATCC 16404
[2] = test system: Candida albicans ATCC 10231
[3] = test system: Enterococcus faecalis ATCC 29212
[4] = test system: Escherichia coli ATCC 25922
[5] = test system: Pseudomonas aeruginosa ATCC 27853
[6] = test system: Staphylococcus aureus ATCC 29213
Staphylococcus aureus = test system: Staphylococcus aureus
Streptococcus sanguinis = test system: Streptococcus sanguinis
[7] = test system: Bacillus subtilis VKM B-501
Escherichia coli C600 = test system: Escherichia coli C600
[8] = test system: Staphylococcus aureus 209P
[9] = test system: Bacillus cereus ATCC 10876
[10] = test system: Salmonella enterica subsp. enterica serovar Typhimurium ATCC 14028
[11] = test system: Streptococcus iniae KCTC 3657
[12] = test system: Acinetobacter baumannii ATCC 19606
[13] = test system: Escherichia coli BW25113 ΔsbmA
Escherichia coli BW25113 = test system: Escherichia coli BW25113
[14] = test system: Klebsiella pneumoniae ATCC 700603
[15] = test system: Staphylococcus aureus ATCC 25923
Pseudomonas aeruginosa = test system: Pseudomonas aeruginosa
[16] = test system: Staphylococcus pseudintermedius
[17] = test system: Acinetobacter baumannii CCARM 12035
[18] = test system: Acinetobacter baumannii KCTC 2508
[19] = test system: Bacillus subtilis KCTC 3068
[20] = test system: Escherichia coli CCARM 1229
[21] = test system: Escherichia coli KCTC 1682
[22] = test system: Pseudomonas aeruginosa CCARM 2002
[23] = test system: Pseudomonas aeruginosa KCTC 2004
[24] = test system: Salmonella typhimurium CCARM 8007
[25] = test system: Salmonella typhimurium KCTC 1926
[26] = test system: Staphylococcus aureus CCARM 3126
[27] = test system: Staphylococcus aureus KCTC 1621
[28] = test system: Staphylococcus epidermidis KCTC 1917

SMILES: CC[C@H](C)[C@H](NC(=O)[C@H](CCCCN)NC(=O)CNC(=O)[C@@H]1CCCN1C(=O)[C@H](Cc1cnc[nH]1)NC(=O)[C@H](CC(C)C)NC(=O)[C@H](CC(C)C)NC(=O)[C@H](Cc1ccc(O)cc1)NC(=O)[C@H](CO)NC(=O)CNC(=O)[C@H](Cc1ccc(O)cc1)NC(=O)[C@H](CC(C)C)NC(=O)[C@H](CO)NC(=O)[C@@H](N)CS)C(=O)N[C@@H](CO)C(=O)N[C@@H](Cc1ccc(O)cc1)C(=O)N[C@@H](CO)C(=O)N[C@@H](CC(C)C)C(=O)N[C@@H](Cc1cnc[nH]1)C(=O)N[C@@H](CS)C(=O)N[C@@H](CO)C(=O)N[C@@H](CCCN=C(N)N)C(=O)O [CSLYGSYLLHPGKISYSLHCSR]
MIC [1]: ≥ 64 µM
MIC [2]: 32 µM (≈ 79.5 µg/mL)
MIC [3]: 16 µM (≈ 39.8 µg/mL)
MIC [4]: 16 µM (≈ 39.8 µg/mL)
MIC [5]: 64 µM (≈ 159 µg/mL)
MIC [6]: 32 µM (≈ 79.5 µg/mL)

SMILES: CC[C@H](C)[C@H](NC(=O)[C@H](Cc1ccccc1)NC(=O)[C@@H](N)Cc1ccccc1)C(=O)N[C@@H](Cc1ccccc1)C(=O)N[C@@H](Cc1ccccc1)C(=O)N[C@@H](Cc1ccccc1)C(N)=O [FFIFFF]
MIC (Staphylococcus aureus): 14.8 µM (≈ 12.8 µg/mL)
MIC (Streptococcus sanguinis): ≥ 32.6 µM

SMILES: CC[C@H](C)[C@H](NC(=O)[C@@H]1CCCN1C(=O)[C@@H]1CCCN1C(=O)[C@H](CCCN=C(N)N)NC(=O)[C@H](Cc1ccccc1)NC(=O)[C@@H]1CCCN1C(=O)[C@@H]1CCCN1C(=O)[C@H](Cc1ccc(O)cc1)NC(=O)[C@H](Cc1ccccc1)NC(=O)[C@@H]1CCCN1C(=O)[C@@H]1CCCN1C(=O)[C@H](CCCN=C(N)N)NC(=O)[C@@H](NC(=O)[C@@H]1CCCN1C(=O)[C@@H]1CCCN1C(=O)[C@H](CCCN=C(N)N)NC(=O)[C@H](CCCN=C(N)N)NC(=O)[C@@H](NC(=O)[C@@H]1CCCN1C(=O)[C@@H]1CCCN1C(=O)[C@H](CCCN=C(N)N)NC(=O)[C@H](Cc1ccccc1)NC(=O)[C@@H](N)CCCN=C(N)N)[C@@H](C)CC)[C@@H](C)CC)C(=O)O [RFRPPIRRPPIRPPFYPPFRPPI]
MIC [12]: 1 µM (≈ 2.87 µg/mL)
MIC [4]: 2 µM (≈ 5.74 µg/mL)
MIC [13]: ≥ 32 µM
MIC (Escherichia coli BW25113): 2 µM (≈ 5.74 µg/mL)
MIC [14]: 32 µM (≈ 91.9 µg/mL)
MIC [5]: 32 µM (≈ 91.9 µg/mL)
MIC [10]: 4 µM (≈ 11.5 µg/mL)
MIC [15]: > 64 µM

SMILES: CC(=O)N[C@@H](CCCN=C(N)N)C(=O)N[C@@H](CCCCN)C(=O)N[C@@H](Cc1ccccc1)C(=O)N[C@@H](CC(C)C)C(=O)N[C@@H](CCCN=C(N)N)C(=O)N[C@@H](CCCN=C(N)N)C(=O)N[C@@H](CCCN=C(N)N)C(=O)NCC(=O)N[C@@H](CCC(=O)O)C(=O)N[C@H](C(=O)N[C@@H](C)C(=O)N[C@@H](Cc1cnc[nH]1)C(=O)N[C@@H](Cc1ccccc1)C(=O)N[C@@H](CO)C(=O)N[C@@H](CCC(N)=O)C(=O)N[C@@H](CCCCN)C(=O)N[C@@H](CO)C(=O)N[C@@H](CC(C)C)C(=O)NCC(=O)N[C@@H](CC(C)C)C(=O)N[C@@H](Cc1ccc(O)cc1)C(=O)N[C@@H](CS)C(=O)N[C@@H](Cc1c[nH]c2ccccc12)C(=O)N[C@@H](Cc1c[nH]c2ccccc12)C(=O)N[C@@H](Cc1c[nH]c2ccccc12)C(N)=O)C(C)C [RKFLRRRGEVAHFSQKSLGLYCWWW]
MIC [5]: 19.9 µM (≈ 64.8 µg/mL)
MIC (Pseudomonas aeruginosa): 39.9 µM (≈ 130 µg/mL)
MIC [6]: 19.9 µM (≈ 64.8 µg/mL)
MIC [16]: ≥ 39.9 µM

SMILES: CC[C@H](C)[C@H](NC(=O)[C@H](CCCCN)NC(=O)[C@H](Cc1c[nH]c2ccccc12)NC(=O)[C@@H](N)CCCN=C(N)N)C(=O)N[C@@H](Cc1ccccc1)C(=O)N[C@@H](CCCCN)C(=O)N[C@@H](CCCCN)C(=O)N[C@H](C(=O)N[C@H](C(=O)N[C@@H](CCCCN)C(=O)N[C@@H](CCCCN)C(=O)N[C@@H](Cc1c[nH]c2ccccc12)C(N)=O)C(C)C)C(C)C [RWKIFKKVVKKW]
MIC [17]: 4 µM (≈ 6.58 µg/mL)
MIC [18]: 4 µM (≈ 6.58 µg/mL)
MIC [19]: 8 µM (≈ 13.2 µg/mL)
MIC [20]: 8 µM (≈ 13.2 µg/mL)
MIC [21]: 4 µM (≈ 6.58 µg/mL)
MIC [22]: 8 µM (≈ 13.2 µg/mL)
MIC [23]: 4 µM (≈ 6.58 µg/mL)
MIC [24]: 8 µM (≈ 13.2 µg/mL)
MIC [25]: 8 µM (≈ 13.2 µg/mL)
MIC [26]: 8 µM (≈ 13.2 µg/mL)
MIC [27]: 4 µM (≈ 6.58 µg/mL)
MIC [28]: 8 µM (≈ 13.2 µg/mL)

Now from value to molecule:

MIC [7]: 0.7 µM (≈ 1.81 µg/mL)
MIC (Escherichia coli C600): 6 µM (≈ 15.5 µg/mL)
MIC [8]: ≥ 36 µM
SMILES: CC[C@H](C)[C@H](NC(=O)[C@H](C)NC(=O)[C@H](CCCCN)NC(=O)[C@H](CCCN=C(N)N)NC(=O)CNC(=O)[C@H](Cc1ccccc1)NC(=O)[C@H](CCCCN)NC(=O)[C@H](CCCCN)NC(=O)[C@@H](NC(=O)[C@H](CC(C)C)NC(=O)[C@H](CCCCN)NC(=O)CN)[C@@H](C)CC)C(=O)N[C@@H](CO)C(=O)N[C@@H](Cc1ccc(O)cc1)C(=O)N[C@@H](C)C(=O)N[C@H](C(=O)N[C@@H](CCCCN)C(=O)N[C@@H](CCCCN)C(=O)N[C@@H](C)C(=O)N[C@@H](CCCN=C(N)N)C(=O)NCC(=O)N[C@@H](CCCCN)C(=O)N[C@@H](Cc1cnc[nH]1)C(=O)O)C(C)C [GKLIKKFGRKAISYAVKKARGKH]

MIC [9]: 11.7 µM (≈ 32 µg/mL)
MIC [4]: 1.1 µM (≈ 3 µg/mL)
MIC [5]: 2.92 µM (≈ 8 µg/mL)
MIC [10]: 0.731 µM (≈ 2 µg/mL)
MIC [6]: > 46.8 µM
MIC [11]: 11.7 µM (≈ 32 µg/mL)
SMILES: CSCC[C@H](NC(=O)[C@H](Cc1ccccc1)NC(=O)[C@H](CCCCN)NC(=O)[C@H](CCCN=C(N)N)NC(=O)[C@H](Cc1ccccc1)NC(=O)CNC(=O)[C@H](CC(N)=O)NC(=O)[C@H](CCCN=C(N)N)NC(=O)[C@H](CCCCN)NC(=O)[C@@H](NC(=O)[C@H](CCCN=C(N)N)NC(=O)[C@@H](N)Cc1cnc[nH]1)C(C)C)C(=O)N[C@@H](CCCN=C(N)N)C(=O)N[C@@H](CCCN=C(N)N)C(=O)N[C@@H](CC(C)C)C(=O)N[C@@H](CCCCN)C(=O)N[C@@H](CCCCN)C(=O)N[C@@H](Cc1ccccc1)C(=O)N[C@@H](Cc1ccccc1)C(=O)N[C@@H](C)C(=O)NCC(=O)NCC(=O)O [HRVKRNGFRKFMRRLKKFFAGG]
